Results taken from the NIST ThermoML archive (doi:10.1016/j.jct.2008.01.008).

Test: xn = mol fraction of the nth substance listed
Settings: 298.15 K, 101 kPa, Liquid; for viscosity: Capillary tube (Ostwald / Ubbelohde) method; for speed of sound: Sing-around technique in a fixed-path interferometer

COCC(C)OCC(C)OC (stereo not given) [2-methoxy-1-(2-methoxy-1-methylethoxy)propane] + CCCCCCCO
Settings | mass density [kg/m3] | speed of sound [m/s] | viscosity [mPa·s]
x1 = 0.0148 | – | – | 5.604
x1 = 0.0292 | – | – | 5.348
x1 = 0.0609 | 825.134 | 1317.8 | –
x1 = 0.0718 | – | – | 4.664
x1 = 0.1164 | 830.66 | 1309.7 | –
x1 = 0.1196 | – | – | 4.033
x1 = 0.157 | 834.553 | 1303 | –
x1 = 0.1575 | – | – | 3.611
x1 = 0.1902 | – | – | 3.294
x1 = 0.2117 | 839.681 | 1295.5 | –
x1 = 0.2555 | – | – | 3.016
x1 = 0.259 | 843.957 | 1289.2 | –
x1 = 0.2613 | – | – | 2.766
x1 = 0.3119 | – | – | 2.468
x1 = 0.3132 | 848.706 | 1281.7 | –
x1 = 0.3539 | 852.157 | 1276.4 | –
x1 = 0.3616 | – | – | 2.235
x1 = 0.406 | 856.458 | 1270.5 | –
x1 = 0.4129 | – | – | 2.031
x1 = 0.4366 | – | – | 1.949
x1 = 0.4532 | – | – | 1.895
x1 = 0.4533 | 860.298 | 1264.9 | –
x1 = 0.5056 | 864.403 | 1258.8 | –
x1 = 0.511 | – | – | 1.736
x1 = 0.5326 | – | – | 1.673
x1 = 0.552 | 867.948 | 1253.6 | –
x1 = 0.5897 | – | – | 1.543
x1 = 0.5935 | 871.045 | 1249.2 | –
x1 = 0.6316 | 873.865 | 1245.4 | –
x1 = 0.6424 | – | – | 1.432
x1 = 0.7111 | – | – | 1.309
x1 = 0.7137 | 879.729 | 1236.2 | –
x1 = 0.7457 | – | – | 1.25
x1 = 0.7666 | 883.415 | 1231 | –
x1 = 0.7977 | – | – | 1.178
x1 = 0.8059 | 886.098 | 1226.6 | –
x1 = 0.8495 | 889.001 | 1222.1 | –
x1 = 0.8531 | – | – | 1.117
x1 = 0.8927 | – | – | 1.079
x1 = 0.9026 | 892.554 | 1216.1 | –
x1 = 0.9293 | 894.156 | 1213 | –
x1 = 0.9421 | – | – | 1.041
x1 = 0.9527 | 895.635 | 1210.7 | –
x1 = 0.9678 | – | – | 1.02
x1 = 0.9935 | – | – | 0.9994

COCC(C)OCC(C)OC (stereo not given) [2-methoxy-1-(2-methoxy-1-methylethoxy)propane] + CCCCCO
Settings | mass density [kg/m3] | speed of sound [m/s] | viscosity [mPa·s]
x1 = 0.0005 | – | – | 3.49
x1 = 0.0143 | 813.241 | 1274.5 | –
x1 = 0.0225 | – | – | 3.246
x1 = 0.0441 | 817.684 | 1272 | –
x1 = 0.0499 | – | – | 2.986
x1 = 0.0656 | – | – | 2.851
x1 = 0.0946 | – | – | 2.627
x1 = 0.1045 | 826.045 | 1266.6 | –
x1 = 0.1367 | – | – | 2.357
x1 = 0.1523 | 832.101 | 1262.4 | –
x1 = 0.194 | – | – | 2.078
x1 = 0.2149 | 839.509 | 1257.2 | –
x1 = 0.2414 | – | – | 1.891
x1 = 0.2431 | 842.645 | 1255 | –
x1 = 0.2954 | – | – | 1.728
x1 = 0.2986 | 848.553 | 1250.7 | –
x1 = 0.3419 | 852.922 | 1247.5 | –
x1 = 0.3597 | – | – | 1.574
x1 = 0.374 | 856.019 | 1245 | –
x1 = 0.4018 | 858.624 | 1243.2 | –
x1 = 0.4152 | – | – | 1.464
x1 = 0.4303 | – | – | 1.436
x1 = 0.4549 | 863.364 | 1239.5 | –
x1 = 0.468 | – | – | 1.38
x1 = 0.4941 | – | – | 1.345
x1 = 0.5038 | 867.504 | 1236.6 | –
x1 = 0.5334 | 869.911 | 1234.7 | –
x1 = 0.5552 | – | – | 1.274
x1 = 0.591 | – | – | 1.23
x1 = 0.6034 | 875.242 | 1230.3 | –
x1 = 0.6553 | 878.913 | 1226.5 | –
x1 = 0.6625 | – | – | 1.169
x1 = 0.6968 | 881.667 | 1224 | –
x1 = 0.709 | – | – | 1.137
x1 = 0.7445 | – | – | 1.112
x1 = 0.7505 | 885.025 | 1221.2 | –
x1 = 0.796 | – | – | 1.079
x1 = 0.7962 | 887.727 | 1218.6 | –
x1 = 0.8509 | 890.774 | 1215.1 | –
x1 = 0.8555 | – | – | 1.054
x1 = 0.9071 | 893.759 | 1211 | –
x1 = 0.9258 | – | – | 1.02
x1 = 0.9476 | 895.868 | 1208.7 | –
x1 = 0.96 | 896.501 | 1207.8 | –
x1 = 0.9803 | – | – | 0.9997

COCC(C)OCC(C)OC (stereo not given) [2-methoxy-1-(2-methoxy-1-methylethoxy)propane] + CO
Settings | mass density [kg/m3] | speed of sound [m/s] | viscosity [mPa·s]
x1 = 0.0146 | – | – | 0.567
x1 = 0.023 | 799.44 | 1116.2 | –
x1 = 0.0467 | – | – | 0.6092
x1 = 0.0705 | 820.052 | 1138.4 | –
x1 = 0.0738 | – | – | 0.644
x1 = 0.1106 | – | – | 0.6831
x1 = 0.1312 | 838.725 | 1158.2 | –
x1 = 0.1422 | – | – | 0.7112
x1 = 0.1632 | 846.233 | 1166.2 | –
x1 = 0.1646 | – | – | 0.7327
x1 = 0.1725 | – | – | 0.7378
x1 = 0.1988 | – | – | 0.7576
x1 = 0.2058 | – | – | 0.7648
x1 = 0.2094 | 855.089 | 1175.4 | –
x1 = 0.2514 | 861.6 | 1182 | –
x1 = 0.2621 | – | – | 0.8031
x1 = 0.3018 | 867.961 | 1188.1 | –
x1 = 0.3128 | – | – | 0.8321
x1 = 0.3583 | – | – | 0.8527
x1 = 0.3598 | 873.908 | 1193.9 | –
x1 = 0.4 | – | – | 0.871
x1 = 0.4036 | 877.603 | 1197.3 | –
x1 = 0.4549 | 881.296 | 1200.3 | 0.8941
x1 = 0.5022 | 884.189 | 1202.6 | –
x1 = 0.5123 | – | – | 0.9106
x1 = 0.5449 | 886.449 | 1204.3 | –
x1 = 0.5474 | – | – | 0.9206
x1 = 0.6169 | 889.615 | 1206.2 | –
x1 = 0.6261 | – | – | 0.9387
x1 = 0.6494 | 890.83 | 1206.8 | –
x1 = 0.6802 | – | – | 0.9504
x1 = 0.7083 | 892.78 | 1207.7 | –
x1 = 0.7319 | – | – | 0.9598
x1 = 0.7557 | – | – | 0.9634
x1 = 0.756 | 894.087 | 1207.9 | –
x1 = 0.7919 | – | – | 0.9682
x1 = 0.8114 | 895.425 | 1207.8 | –
x1 = 0.8537 | 896.298 | 1207.6 | –
x1 = 0.8565 | – | – | 0.9775
x1 = 0.9047 | 897.217 | 1207 | –
x1 = 0.9185 | – | – | 0.9855
x1 = 0.9327 | – | – | 0.9862
x1 = 0.9364 | 897.708 | 1206.2 | –
x1 = 0.9511 | 897.931 | 1206.2 | –
x1 = 0.9572 | – | – | 0.9881
x1 = 0.974 | – | – | 0.9898
